Results as given in PubChem BioAssay (NCI).
Values joined by “and” are separate entries in the source; they are usually repeats but may differ in a detail not shown here. Equal entries are not always repeated.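 Exposure lasted 48 hours, with cells grown in 96-well plates and compounds tested at five concentrations. Abbreviation: GI50, concentration required for 50% inhibition of growth. The concentration for full growth arrest is given as TGI.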

Assays:
Assay in all cases: NCI anticancer screen, dose series, 48 h
DMS 273 small cell lung = system: DMS 273 small cell lung
U251 CNS = system: U251 CNS
TK-10 renal = system: TK-10 renal
MALME-3M melanoma = system: MALME-3M melanoma
SF-539 CNS = system: SF-539 CNS
OVCAR-8 ovarian = system: OVCAR-8 ovarian
XF 498 CNS = system: XF 498 CNS
HOP-62 NSCLC = system: HOP-62 NSCLC
HS 578T breast = system: HS 578T breast
BT-549 breast = system: BT-549 breast

| SMILES | TGI (DMS 273 small cell lung) [µM] | TGI (U251 CNS) | TGI (TK-10 renal) | TGI (MALME-3M melanoma) | TGI (SF-539 CNS) | TGI (OVCAR-8 ovarian) | TGI (XF 498 CNS) [µM] | TGI (HOP-62 NSCLC) | GI50 (DMS 273 small cell lung) | GI50 (U251 CNS) | GI50 (TK-10 renal) | GI50 (MALME-3M melanoma) | GI50 (SF-539 CNS) | GI50 (OVCAR-8 ovarian) | GI50 (HOP-62 NSCLC) | TGI (HS 578T breast) | TGI (BT-549 breast) | GI50 (HS 578T breast) | GI50 (BT-549 breast) |
| --- | --- | --- | --- | --- | --- | --- | --- | --- | --- | --- | --- | --- | --- | --- | --- | --- | --- | --- | --- |
| Cc1cc(NS(=O)(=O)c2ccc(Nc3c4ccccc4nc4c(C(=O)Nc5ccc(S(=O)(=O)N=C(N)N)cc5)cccc34)cc2)no1 | > 100 | > 100 µM | > 100 µM | > 100 µM | > 100 µM | > 100 µM | > 100 | > 100 µM | – | – | – | – | – | – | – | – | – | – | – |
| Cn1cnc([N+](=O)[O-])c1Sc1ccccn1 | > 100 | > 100 µM | > 100 µM | > 100 µM | > 100 µM | > 100 µM | > 100 | > 100 µM | – | – | – | – | – | – | – | – | – | – | – |
| C[Si](C)(C)/C=C/CCC(C=O)(CCCl)c1ccccc1 (stereo unspecified) | 55.2 | 33 µM | > 100 µM | 52.7 µM | > 100 µM | 87 µM | 36 | – | – | – | – | – | – | – | – | – | – | – | – |
| O=C1C2c3[nH]c4ccccc4c3[C@@H]3CCCCCCCCCCC3C2C(=O)N1c1ccccc1 (stereo partly specified) | > 100 | 37.8 µM | 44.3 µM | – | 24.3 µM | 42 µM | – | – | – | – | – | – | – | – | – | – | – | – | – |
| COC(=O)C[CH](C(=O)OC)[Ge]([CH3])([CH3])[S]c1ccccc1 (stereo unspecified) | 29.9 | 26.2 µM | > 100 µM | > 100 µM | 39.7 µM | 76.9 µM | – | 50.5 µM | 12.6 µM | 12 µM | 38.9 µM | > 100 µM | 22.1 µM | 19.3 µM | 22.4 µM | – | – | – | – |
| Cc1c[nH]c2c1C13CC1CN(C(=O)c1cc4cc(NC(=O)c5cc6ccccc6o5)ccc4[nH]1)C3=CC2=O (stereo unspecified) | – | < 0.001 µM | < 0.001 µM | < 0.001 µM | < 0.001 µM | < 0.001 µM | – | – | > 1.17 ng/mL | – | – | – | – | > 1.17 ng/mL | – | – | – | – | – |
| COc1cc([C@@H]2c3cc4c(cc3[C@@H](NC(=O)c3ccc(N)cc3)C3COC(=O)[C@@H]32)OCO4)cc(OC)c1O (stereo partly specified) | 16.3 | 3.5 µM | 29.7 µM | 19.8 µM | 3.87 µM | 16.3 µM | – | 3.95 µM | – | – | – | – | – | – | – | – | – | – | – |
| COc1ccc2cccc(C(=O)c3ccc(C)c4c3CCC4)c2c1 | 70 | > 100 µM | > 100 µM | 72.8 µM | – | > 100 µM | – | 69.3 µM | – | – | – | – | – | – | – | – | – | – | – |
| CCC1C(C)c2c([nH]c3ccccc23)C2C(=O)N(c3ccccc3)C(=O)C21 (stereo unspecified) | 37.4 | 29.3 µM | 89.2 µM | 30.4 µM | 34.5 µM | 28.7 µM | 36 | – | – | – | – | – | – | – | – | – | – | – | – |
| O=C(CC(=O)N1N=C(c2ccccc2)C(N=Nc2ccc(C(=O)O)cc2)C1=O)Nc1ccc(F)cc1 (stereo unspecified) | 78.7 | – | > 100 µM | > 100 µM | 54.5 µM | > 100 µM | 93.4 | – | – | – | – | – | – | – | – | – | – | – | – |
| S=c1nc(-c2nc(=S)[nH]c3c2CCCCCCCCCC3)c2c([nH]1)CCCCCCCCCC2 | – | > 100 µM | > 100 µM | > 100 µM | > 100 µM | > 100 µM | – | > 100 µM | – | – | – | – | – | – | – | > 100 µM | > 100 µM | – | – |
| COc1cc(C)c(C(=O)O[C@H]2[C@H](O[C@H]3[C@@H](O)COC(O[C@H]4C[C@H]5[C@@H]6CC=C7C[C@@H](O)CC[C@]7(C)[C@H]6CC[C@]5(C)[C@H]4[C@H](C)C(=O)CCC(C)C)[C@@H]3OC(C)=O)OC[C@@H](O)[C@@H]2O)c(C)c1 (stereo partly specified) | – | 12.8 µM | 16.6 µM | 5.89 µM | 0.0137 µM | > 100 µM | – | 3.65 µM | – | < 0.01 µM | 0.704 µM | 0.0257 µM | < 0.01 µM | 10.3 µM | 0.0125 µM | 0.161 µM | 5.5 µM | < 0.01 µM | < 0.01 µM |
| O=C(c1ccccc1Nc1ccnc(C(F)(F)F)c1)N1CCN(c2cccc(Cl)c2)CC1 | – | 99.4 µM | > 100 µM | 69.3 µM | 41.1 µM | > 87.8 µM | – | > 100 µM | – | 24.5 µM | 30.8 µM | 23.1 µM | 17.8 µM | 24.4 µM | 28.2 µM | 89.2 µM | 37.3 µM | 17.3 µM | 15.9 µM |
| C=CN1C(=O)OC(c2ccccc2)C1c1ccccc1 (stereo unspecified) | > 100 | > 100 µM | > 100 µM | > 100 µM | > 100 µM | > 100 µM | – | > 100 µM | – | – | > 100 µM | > 100 µM | – | > 100 µM | 52.8 µM | – | – | – | – |
| C#CCN1C(=O)/C(=c2\sc3n(c2=O)C2C(NN=3)N(CC)C(=O)N2CC)c2ccccc21 (stereo unspecified) | – | > 47 µM | 51.4 µM | > 100 µM | 1.4 µM | > 100 µM | – | > 52.6 µM | – | 0.648 µM | 14.1 µM | 0.595 µM | 0.295 µM | 1.07 µM | 0.868 µM | 32.8 µM | 12.4 µM | 0.368 µM | 0.568 µM |
| C=C1CCC2C3(C)COC(c4ccc(NC(C)=O)cc4)OC3CCC2(C)C1C/C=C1/C(=O)OCC1O (stereo unspecified) | – | > 100 µM | > 100 µM | > 100 µM | > 100 µM | > 100 µM | – | > 100 µM | – | 79 µM | 6.25 µM | 5.96 µM | > 100 µM | 7.76 µM | > 100 µM | > 100 µM | 9.35 µM | > 100 µM | 1.86 µM |
| O=C1c2ccccc2C(=O)c2c(NCCCNCCO)ccc(NCCCNCCO)c21 | – | 23.3 µM | 40.6 µM | 27.9 µM | 15.3 µM | 31 µM | 27 | 23.8 µM | – | – | – | – | – | – | – | 34.4 µM | 30.7 µM | – | – |
| CCCCCCCCCCCC(=O)OCC1OC(n2cc(F)c(=O)[nH]c2=O)C(NC(=O)OCc2ccccc2)C(O)C1O (stereo unspecified) | 36.2 | 38.9 µM | > 100 µM | 47.9 µM | 49.4 µM | 43.7 µM | – | > 100 µM | – | – | – | – | – | – | – | – | – | – | – |
| O=C1c2ccccc2C(=O)c2c1ccc(C(Br)Br)c2[N+](=O)[O-] | – | 2.97 µM | 3.84 µM | 3.71 µM | 3.41 µM | 4.35 µM | – | 2.99 µM | – | 1.6 µM | 1.95 µM | 1.94 µM | 1.76 µM | 1.95 µM | 1.42 µM | 6.75 µM | 8.3 µM | 2.28 µM | 2.51 µM |
| CN1/C(=C\C(I)C(I)C2=[N+](C)c3ccccc3C2(C)C)C(C)(C)c2ccccc21 (stereo unspecified) | – | 15.7 µM | 27.9 µM | 14 µM | 23.6 µM | 13.9 µM | – | 13.8 µM | – | 0.262 µM | 0.521 µM | 0.277 µM | 0.783 µM | 0.303 µM | 0.383 µM | 39.2 µM | 3.17 µM | 0.992 µM | 0.119 µM |
| C/C(=C\c1ccc(Cl)cc1)C(C)(C)C(=O)O | – | > 100 µM | > 100 µM | > 100 µM | > 100 µM | > 100 µM | – | > 100 µM | – | – | – | – | – | – | – | > 100 µM | > 100 µM | – | – |
| CN(C)c1ccc(/C=C2\C[C@H]3[C@@H]4CC=C5C[C@@H](N6CCCC6)CC[C@]5(C)[C@H]4CC[C@]3(C)[C@H]2O)cc1 | – | 1.92 µM and 3.31 µM | 3.17 µM and 11.7 µM | 1.69 µM and 8.35 µM | 12.8 µM | 1.75 µM and 5.47 µM | – | 7.14 µM and 12.9 µM | – | 1.78 µM | 3.76 µM | 2.55 µM | – | 2.87 µM | 2.98 µM | 2.5 µM and 7.93 µM | 9.72 µM and 53.1 µM | 2.83 µM | 17.4 µM |
| COc1ccc(-c2ccc3c(NC(=O)C4CC4)n[nH]c3n2)cc1 | – | > 25 µM | > 25 µM | > 25 µM | > 25 µM | > 25 µM | – | > 22 µM | – | 18 µM | > 25 µM | > 25 µM | > 25 µM | 11.7 µM | 7.64 µM | > 25 µM | > 25 µM | 23.6 µM | > 14.3 µM |
| O=C(NCc1cccnc1)/C(=C\c1ccc(Br)cc1)S(=O)(=O)c1ccccc1 | – | 2.23 µM | 2.91 µM | 2.58 µM | 1.61 µM | 3.33 µM | – | 3.63 µM | – | 0.774 µM | 1.5 µM | 1.13 µM | 0.663 µM | 0.705 µM | 1.64 µM | 5.31 µM | 2.21 µM | 1.25 µM | 0.913 µM |
| S=c1nc[nH]c2c1ncn2Cc1ccco1 | – | > 100 µM | > 100 µM | > 100 µM | > 100 µM | > 100 µM | – | > 100 µM | – | – | – | – | – | – | – | > 100 µM | > 100 µM | – | – |
| CC1(C)N=C(N)N=C(N)N1c1cccc(C#N)c1 | – | > 100 µM | > 100 µM | > 100 µM | > 100 µM | > 100 µM | – | > 100 µM | – | 0.752 µM | 18.2 µM | 16.7 µM | 3.74 µM | 0.599 µM | 16.6 µM | > 100 µM | > 100 µM | 71.6 µM | 27.9 µM |
| CCCS(=O)(=O)Nc1ccc(F)c(C(=O)c2c[nH]c3ncc(-c4ccc(Cl)cc4)cc23)c1F | – | 15.9 µM and > 10 µM | 34.6 µM and > 10 µM | 0.0772 µM | 17.1 µM and > 10 µM | 43.6 µM and > 10 µM | – | 21.6 µM and > 10 µM | – | 3.37 µM and 4.02 µM | 5.99 µM and 5.48 µM | 0.0161 µM and 0.0331 µM | 3.91 µM and 4.51 µM | 6.16 µM and > 8.65 µM | 7.39 µM and > 8.12 µM | 6.44 µM and 9.94 µM | 19.2 µM and > 10 µM | 1.3 µM and 1.96 µM | 5.2 µM and > 7.63 µM |
